≈ marks a conversion by molar mass, not a printed value.
What was measured:
[1] = Effect of cyclodextrins on the aqueous solubility of BIRB 796; assay type: physicochemical; conditions: for solubility: aqueous
Method: Complexing cyclodextrin agents were evaluated as a means to improve the solubility of BIRB 796. The solubility of BIRB 796 was evaluated as a function of the concentrations of underivatized parent β-cyclodextrin (BCD), the alkylated derivatives […]. The results of Table 1 with respect to the solubility of BIRB 796 as a function of HPBCD concentration are illustrated in FIG. 1, and the results of Table 1 with respect to the solubitlity of BIRB 796 as a function of SBECD concentration are shown in FIG. 2.

[2] = BIRB 796 binding to cyclodextrin (binding isotherm from solubility data), HPBCD; assay type: physicochemical
Method: (§1) The binding affinity for the BIRB 796 interaction with the ligands was evaluated in the following manner:
(§2) where Lt (ligand) is the total HPBCD or SBECD concentration, St is the solubility of BIRB 796 in the presence of ligand, So is the solubility in the absence of ligand, K11 is the binding constant for the 1:1 complex and K12 is the binding constant for the 1:2 complex. Upon rearrangement, these two equations simplify to the following linear equation: [formula]
(§3) A plot of [L]t vs. (StSo)/[Lt] yields the binding affinity according to the above equation.
(§4) FIG. 3 illustrates the binding analysis for the interaction between BIRB 796 and HPBCD at different concentrations. FIG. 4 illustrates the binding analysis for the interaction between BIRB 796 and SBECD at different concentrations. The binding constants were obtained through the slope and intercept values.

[3] = BIRB 796 binding to cyclodextrin (binding isotherm from solubility data), SBECD; assay type: physicochemical
Method: as §1, §2, §3, §4

[4] = Stability of BIRB 796 in PEG 400 as function of temperature, storage atmosphere and light exposure; assay type: physicochemical; conditions: for kobs / t90: PEG 400, C0 = 30 mg/mL; for half-life at 30 mg/mL: solution in PEG 400, PEG 400, C0 = 30 mg/mL
Method: The stability of BIRB 796 in PEG 400 was evaluated. An initial BIRB 796 concentration of approximately 30 mg/mL was prepared and the percent of BIRB 796 remaining in the PEG 400 solvent evaluated over an approximately two week time frame for differing conditions. The PEG 400-BIRB 796 mixture was kept under several different conditions: (1) at room temperature (about 23° C.) in ambient air in the dark; (2) at room temperature (about 23° C.) in ambient air in the light; (3) at 40° C. in ambient air; (4) at 40° C. in ambient air, the mixture being imbued with 0.1% sodium metabisulfite, an antioxidant; (5) at 60° C. in ambient air; (6) at 60° C. in an oxygen atmosphere; and (7) at 60° C. in a nitrogen atmosphere.
Rate constants were calculated using linear regression analysis of the data.

[5] = Solubility and/or stability of BIRB 796 in pharmaceutically-acceptable solvents; assay type: physicochemical; conditions: 30% PEG 400, 40% PG/10% ethanol or aqueous buffer solutions at any pH
[6] = system: proinflammatory cytokines, such as tumor necrosis factor (TNF) and interleukin-1 (IL-1); conditions: disclosed in PCT/US99/29165; cited from earlier work
[7] = 40° C., 0.1% sodium metabisulfite

Work on `Cc1ccc(-n2nc(C(C)(C)C)cc2NC(=O)Nc2ccc(OCCN3CCOCC3)c3ccccc23)cc1` [BIRB 796, 1-(5-tert-butyl-2-p-tolyl-2H-pyrazol-3-yl)-3-[4-(2-morpholin-4-yl-ethoxy)-naphthalen-1-yl]-urea] yielded a solubility ([1]; aqueous cyclodextrin solution, aqueous with cosolvent or surfactant or cyclodextrin, BCD 0.7 % w/v) of 44 µg/mL (≈ 83.4 µM), a solubility ([1]; aqueous cyclodextrin solution, aqueous with cosolvent or surfactant or cyclodextrin, BCD 1.4 % w/v) of 74 µg/mL (≈ 140 µM) and a solubility ([1]; aqueous cyclodextrin solution, aqueous with cosolvent or surfactant or cyclodextrin, BCD 2 % w/v) of 87 µg/mL (≈ 165 µM). It also gave a solubility ([1]; aqueous cyclodextrin solution, aqueous with cosolvent or surfactant or cyclodextrin, HPBCD 1 % w/v) of 24 µg/mL (≈ 45.5 µM), a solubility ([1]; aqueous cyclodextrin solution, aqueous with cosolvent or surfactant or cyclodextrin, HPBCD 2.5 % w/v) of 49 µg/mL (≈ 92.9 µM) and a solubility ([1]; aqueous cyclodextrin solution, aqueous with cosolvent or surfactant or cyclodextrin, HPBCD 5 % w/v) of 137 µg/mL (≈ 260 µM). The solubility ([1]; aqueous cyclodextrin solution, aqueous with cosolvent or surfactant or cyclodextrin, HPBCD 10 % w/v) was 233 µg/mL (≈ 442 µM), the solubility ([1]; aqueous cyclodextrin solution, aqueous with cosolvent or surfactant or cyclodextrin, HPBCD 25 % w/v) was 1540 µg/mL (≈ 2910 µM) and the solubility ([1]; aqueous cyclodextrin solution, aqueous with cosolvent or surfactant or cyclodextrin, SBECD 1 % w/v) was 21 µg/mL (≈ 39.8 µM). It also gave a solubility ([1]; aqueous cyclodextrin solution, aqueous with cosolvent or surfactant or cyclodextrin, SBECD 2.5 % w/v) of 85 µg/mL (≈ 161 µM), a solubility ([1]; aqueous cyclodextrin solution, aqueous with cosolvent or surfactant or cyclodextrin, SBECD 5 % w/v) of 156 µg/mL (≈ 296 µM) and a solubility ([1]; aqueous cyclodextrin solution, aqueous with cosolvent or surfactant or cyclodextrin, SBECD 10 % w/v) of 371 µg/mL (≈ 703 µM). It also gave a solubility ([1]; aqueous cyclodextrin solution, aqueous with cosolvent or surfactant or cyclodextrin, SBECD 25 % w/v) of 2170 µg/mL (≈ 4120 µM), a solubility ([1]; aqueous solution without cyclodextrin, SBECD 0 % w/v) of 0.5 µg/mL (≈ 0.948 µM) and a solubility ([1]; aqueous solution without cyclodextrin, no cyclodextrin (0 % w/v)) of 3.3 µg/mL (≈ 6.25 µM). The “BIRB 796 solubilized by SBECD, more than by HPBCD” value ([1]; highest cyclodextrin concentration evaluated (25% w/v)) was “approximately 40%”, the “Binding Constants K1:1” value ([2]; 1:1 complex with HPBCD) was 675 M⁻¹ and the “Binding Constants K1.2” value ([2]; 1:2 complex with HPBCD) was 17.5 M⁻¹. For the same compound, the “Binding Constants K1:1” value ([3]; 1:1 complex with SBECD) was 8337 M⁻¹, the “Binding Constants K1.2” value ([3]; 1:2 complex with SBECD) was 29.1 M⁻¹ and the “binding affinity of SBECD for BIRB 796 compared with HPBCD” value ([3]; SBECD versus HPBCD, Table 2) was “approximately an order of magnitude higher binding affinity”. For the same compound, the kobs ([4]; 23° C., air (dark)) was -0.00253 day⁻¹, the t90 ([4]; 23° C., air (dark)) was 41.5 days and the kobs ([4]; 23° C., air, light) was -0.0078 day⁻¹. For the same compound, the t90 ([4]; 23° C., air, light) was 13.5 days, the kobs [4, 7] was -0.0161 day⁻¹ and the t90 [4, 7] was 6.52 days. The kobs ([4]; 40° C., air) was -0.0192 day⁻¹, the t90 ([4]; 40° C., air) was 5.47 days and the kobs ([4]; 60° C., N2) was -0.0552 day⁻¹. For the same compound, the t90 ([4]; 60° C., N2) was 1.90 days, the kobs ([4]; 60° C., O2) was -0.0772 day⁻¹ and the t90 ([4]; 60° C., O2) was 1.36 days. The kobs ([4]; 60° C., air) was -0.0587 day⁻¹, the t90 ([4]; 60° C., air) was 1.79 days and the “degradation rate under constant light relative to dark” value ([4]; PEG 400, room temperature (about 23° C.), ambient air) was “approximately three-times as fast”. For the same compound, the “decomposition in PEG 400” value ([4]; over two weeks, 23° C.) was “significant decomposition was observed”, the half-life at 30 mg/mL ([4]; 23° C., air (dark)) was 274 days and the half-life at 30 mg/mL ([4]; 23° C., air, light) was 88.8 days. It also gave a half-life at 30 mg/mL [4, 7] of 43 days, a half-life at 30 mg/mL ([4]; 40° C., air) of 36.1 days and a half-life at 30 mg/mL ([4]; 60° C., N2) of 12.6 days. The half-life at 30 mg/mL ([4]; 60° C., O2) was 8.98 days, the half-life at 30 mg/mL ([4]; 60° C., air) was 11.8 days and the solubility and/or stability [5] was “can not achieve a desirable solubility and/or stability”. For the same compound, the “inhibitory activity with respect to proinflammatory cytokines” value [6] was “unexpectedly significant inhibitory activity”.
